{
  "source": "ChEMBL document CHEMBL1131666",
  "about": "“Discovery of a novel series of selective MMP inhibitors: identification of the gamma-sulfone-thiols” (Bioorg Med Chem Lett, 1999)",
  "data": [
    {"biological_target": "T1, Interstitial collagenase (Homo sapiens, UniProt P03956)", "T1 sequence (P03956 whole entry)": "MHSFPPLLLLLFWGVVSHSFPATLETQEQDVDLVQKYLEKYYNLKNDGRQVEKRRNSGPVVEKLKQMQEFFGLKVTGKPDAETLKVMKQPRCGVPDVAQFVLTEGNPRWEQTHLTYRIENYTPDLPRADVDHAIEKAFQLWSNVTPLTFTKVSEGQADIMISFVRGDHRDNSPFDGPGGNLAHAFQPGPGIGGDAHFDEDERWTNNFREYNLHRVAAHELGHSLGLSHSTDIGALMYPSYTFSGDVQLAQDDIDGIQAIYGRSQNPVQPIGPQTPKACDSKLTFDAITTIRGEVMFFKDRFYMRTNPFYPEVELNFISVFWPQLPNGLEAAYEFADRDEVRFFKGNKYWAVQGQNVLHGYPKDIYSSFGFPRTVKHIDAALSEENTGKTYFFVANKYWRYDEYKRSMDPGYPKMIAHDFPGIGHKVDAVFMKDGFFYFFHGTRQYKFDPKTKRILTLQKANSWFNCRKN", "test": "Inhibition of matrix metalloprotease-1 (MMP-1)", "units": {"IC50": "nM"}, "values": [
      {"molecule": "COc1ccc(S(=O)(=O)CCC(C)S)cc1", "note": "(stereo not drawn)", "IC50": 8000},
      {"molecule": "COC(=O)C(S)CCS(=O)(=O)c1ccc(OC)cc1", "note": "(stereo not drawn)", "IC50": 4000},
      {"molecule": "COc1ccc(S(=O)(=O)CC(C)(C)CS)cc1", "IC50": "> 10000"},
      {"molecule": "CCCCC(S)CCS(=O)(=O)c1ccc(OC)cc1", "note": "(stereo not drawn)", "IC50": "> 10000"},
      {"molecule": "COc1ccc(S(=O)(=O)C[C@@H](C)CS)cc1", "IC50": 5000},
      {"molecule": "COc1ccc(S(=O)(=O)C(CCS)c2ccccc2)cc1", "note": "(stereo not drawn)", "IC50": "> 10000"},
      {"molecule": "O=S(=O)(CCCS)c1ccc(Oc2ccccc2)cc1", "IC50": 1500},
      {"molecule": "COc1ccc(S(=O)(=O)C[C@H](C)CS)cc1", "IC50": "> 10000"},
      {"molecule": "O=S(=O)(CCCS)c1ccc(Sc2ccccc2)cc1", "IC50": "> 10000"},
      {"molecule": "COc1ccc(S(=O)(=O)CCCS)cc1", "IC50": "> 10000"}
    ]},
    {"biological_target": "Stromelysin-1 (Homo sapiens, UniProt P08254)", "sequence (P08254 whole entry)": "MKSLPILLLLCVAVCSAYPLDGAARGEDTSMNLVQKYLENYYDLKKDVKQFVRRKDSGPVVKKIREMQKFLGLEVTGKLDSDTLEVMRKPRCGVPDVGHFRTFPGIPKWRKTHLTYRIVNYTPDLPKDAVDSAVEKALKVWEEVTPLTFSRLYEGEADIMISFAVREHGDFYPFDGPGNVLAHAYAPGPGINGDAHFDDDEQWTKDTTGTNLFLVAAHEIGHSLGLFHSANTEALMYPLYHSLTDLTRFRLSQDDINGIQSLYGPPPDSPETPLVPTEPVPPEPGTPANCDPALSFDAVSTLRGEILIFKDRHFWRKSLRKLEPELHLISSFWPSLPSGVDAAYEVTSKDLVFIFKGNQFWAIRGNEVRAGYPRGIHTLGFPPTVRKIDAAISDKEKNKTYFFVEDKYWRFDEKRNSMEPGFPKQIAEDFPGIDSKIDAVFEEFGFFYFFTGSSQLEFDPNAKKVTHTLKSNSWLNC", "test": "Inhibition of matrix metalloprotease-3 (MMP-3)", "units": {"IC50": "nM"}, "values": [
      {"molecule": "O=S(=O)(CCCS)c1ccc(Oc2ccccc2)cc1", "IC50": 500},
      {"molecule": "O=S(=O)(CCCS)c1ccc(Sc2ccccc2)cc1", "IC50": 150}
    ]},
    {"biological_target": "Neutrophil collagenase (Homo sapiens, UniProt P22894)", "sequence (P22894 whole entry)": "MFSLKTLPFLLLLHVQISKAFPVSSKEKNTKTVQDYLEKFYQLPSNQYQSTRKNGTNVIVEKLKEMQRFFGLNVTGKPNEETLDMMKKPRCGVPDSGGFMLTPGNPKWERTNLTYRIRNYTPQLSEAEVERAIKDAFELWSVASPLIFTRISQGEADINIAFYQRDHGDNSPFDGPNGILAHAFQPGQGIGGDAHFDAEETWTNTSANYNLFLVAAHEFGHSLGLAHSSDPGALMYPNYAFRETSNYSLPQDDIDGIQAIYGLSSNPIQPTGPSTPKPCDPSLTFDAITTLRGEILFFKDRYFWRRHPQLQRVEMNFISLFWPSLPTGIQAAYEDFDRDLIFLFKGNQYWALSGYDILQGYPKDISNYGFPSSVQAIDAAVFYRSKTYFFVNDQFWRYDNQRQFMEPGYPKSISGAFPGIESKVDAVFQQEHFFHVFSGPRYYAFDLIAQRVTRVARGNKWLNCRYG", "test": "Inhibition of Matrix metalloprotease-8", "units": {"IC50": "nM"}, "values": [
      {"molecule": "O=S(=O)(CCCS)c1ccc(Oc2ccccc2)cc1", "IC50": 4},
      {"molecule": "O=S(=O)(CCCS)c1ccc(Sc2ccccc2)cc1", "IC50": 36}
    ]},
    {"biological_target": "Collagenase 3 (Homo sapiens, UniProt P45452)", "test": "Inhibition of Matrix metalloprotease-13 (MMP-13)", "units": {"IC50": "nM"}, "values": [
      {"molecule": "COc1ccc(S(=O)(=O)CCC(C)S)cc1", "note": "(stereo not drawn)", "IC50": 32},
      {"molecule": "CCCC(CCS)S(=O)(=O)c1ccc(OC)cc1", "note": "(stereo not drawn)", "IC50": 6},
      {"molecule": "COc1ccc(S(=O)(=O)C[C@@H](C)CS)cc1", "IC50": 250},
      {"molecule": "O=S(=O)(CCCS)c1ccc(Oc2ccccc2)cc1", "IC50": 0.5}
    ]}
  ]
}
